Test results taken from patent US11248013B2, “Tricyclic inhibitors of poly(ADP-ribose)polymerase” (Rakovina Therapeutics Inc., priority 2011, dated 2022).

What follows are compounds tested against PARP-1 (Homo sapiens (Human), UniProt P09874) (assay: PARP-1 Enzyme Assay (HT Universal Colorimetric PARP Assay Kit)). Conditions: OD450, read-out: IC50 (PARP-1 inhibition).
Assay type: biochemical
Experimental: Inhibition of PARP-1 enzymatic activities was measured using an HT Universal Colorimetric PARP Assay Kit (Trevigen, catalogue #4677-096-K) following the standard procedures.
Serial dilutions of PARP compounds were added to appropriate wells. The compound was incubated with PARP enzyme at RT for 10 min, and the reaction was initiated by addition of the PARP substrate cocktail, Each concentration of compound was tested in triplicate wells. After 15 min reaction, the reaction was stopped, and the Strep-HRP was added into each well and incubated for 1 h at RT. After addition of TACS-Sapphire™ colorimetric substrate and incubated in dark for 15 min, the OD450 was read out with an EnVision instrument. IC50 values (the concentration at which 50% of the enzyme activity is inhibited) were calculated, which are determined over a range of different concentrations, normally from 10 μM to 0.1 nM.

PARP-1, sequence (P09874 whole entry): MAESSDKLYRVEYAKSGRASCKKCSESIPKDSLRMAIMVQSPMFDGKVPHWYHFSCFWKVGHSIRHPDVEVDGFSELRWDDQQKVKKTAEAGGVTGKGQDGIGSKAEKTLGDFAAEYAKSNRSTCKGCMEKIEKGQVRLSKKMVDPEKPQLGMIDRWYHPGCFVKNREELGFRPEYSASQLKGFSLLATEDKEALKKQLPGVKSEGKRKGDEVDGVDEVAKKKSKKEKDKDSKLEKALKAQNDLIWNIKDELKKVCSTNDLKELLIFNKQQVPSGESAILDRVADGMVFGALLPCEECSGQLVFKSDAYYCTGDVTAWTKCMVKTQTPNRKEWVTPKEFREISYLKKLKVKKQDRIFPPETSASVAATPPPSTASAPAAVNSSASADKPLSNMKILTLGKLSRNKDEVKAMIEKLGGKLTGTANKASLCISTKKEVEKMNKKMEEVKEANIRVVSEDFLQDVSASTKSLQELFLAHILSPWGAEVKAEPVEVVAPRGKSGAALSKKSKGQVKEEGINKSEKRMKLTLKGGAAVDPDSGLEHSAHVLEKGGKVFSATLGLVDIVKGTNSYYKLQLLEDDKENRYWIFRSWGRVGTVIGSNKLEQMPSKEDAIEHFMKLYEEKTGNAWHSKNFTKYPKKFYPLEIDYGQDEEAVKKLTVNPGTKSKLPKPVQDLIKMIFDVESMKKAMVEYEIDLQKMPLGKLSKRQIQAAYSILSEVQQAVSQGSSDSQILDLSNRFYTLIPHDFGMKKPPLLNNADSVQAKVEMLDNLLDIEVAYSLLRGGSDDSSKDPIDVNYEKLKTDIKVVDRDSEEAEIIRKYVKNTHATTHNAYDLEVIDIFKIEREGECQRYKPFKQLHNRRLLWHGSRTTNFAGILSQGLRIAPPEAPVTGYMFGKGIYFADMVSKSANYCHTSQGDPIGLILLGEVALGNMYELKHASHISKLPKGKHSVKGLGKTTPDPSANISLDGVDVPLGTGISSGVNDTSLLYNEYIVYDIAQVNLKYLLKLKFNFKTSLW

| Compound | IC50 [nM] |
| --- | --- |
| CP1(=O)CCN(C(=O)c2cc(Cc3n[nH]c(=O)c4ccccc34)ccc2F)CC1 [Example 50, 4-[[4-fluoro-3-(4-methyl-4-oxo-1,4-azaphosphinane-1-carbonyl)phenyl]methyl]-2H-phthalazin-1-one] | < 100 |
| O=c1[nH]nc(Cc2ccc(F)c(P3(=O)CCN(C4CC4)CC3)c2)c2ccc(F)cc12 [Example 54, 4-(3-(1-cyclopropyl-4-oxido-1,4-azaphosphinan-4-yl)-4-fluorobenzyl)-7-fluorophthalazin-1(2H)-one] | < 100 |
| O=c1[nH]nc(Cc2ccc(F)c(P3(=O)CCN(c4nccc(Cl)n4)CC3)c2)c2ccccc12 [Example 18, 4-(3-(1-(4-chloropyrimidin-2-yl)-4-oxido-1,4-azaphosphinan-4-yl)-4-fluorobenzyl)phthalazin-1(2H)-one] | < 100 |
| O=c1[nH]nc(Cc2ccc(F)c(P3(=O)CCN(c4ncc5ccccc5n4)CC3)c2)c2ccccc12 [Example 30, 4-(4-fluoro-3-(4-oxido-1-(quinazolin-2-yl)-1,4-azaphosphinan-4-yl)benzyl)phthalazin-1(2H)-one] | < 100 |
| (+)-4-[[4-fluoro-3-(4-oxido-1-(pyrimidin-2-yl)-1,4-azaphosphinan-4-yl)phenyl)](hydroxymethyl)]-7-fluorophthalazin-1(2H)-one [Example 59] | < 100 |
| 4-(4-fluoro-3-(4-oxido-1-pivaloyl-1,4-azaphosphinan-4-yl)benzyl)phthalazin-1(2H)-one [Example 8] | < 100 |
| CC(=O)c1cccnc1N1CCP(=O)(c2cc(Cc3n[nH]c(=O)c4ccccc34)ccc2F)CC1 [Example 34, 4-(4-fluoro-3-(4-oxido-1-(3-(acetyl)pyridin-2-yl)-1,4-azaphosphinan-4-yl)benzyl)phthalazin-1(2H)-one] | < 100 |
| O=c1[nH]nc(Cc2ccc(F)c(P3(=O)CCN(C4CCC4)CC3)c2)c2ccccc12 [Example 39, 4-(3-(1-cyclobutyl-4-oxido-1,4-azaphosphinan-4-yl)-4-fluorobenzyl)phthalazin-1(2H)-one] | < 100 |
| O=c1[nH]nc(Cc2ccc(F)c(P3(=O)CCN(c4ccnc(Cl)n4)CC3)c2)c2ccccc12 [Example 17, 4-(3-(1-(2-chloropyrimidin-4-yl)-4-oxido-1,4-azaphosphinan-4-yl)-4-fluorobenzyl)phthalazin-1(2H)-one] | < 100 |
| CC(C)(C)CN1CCP(=O)(c2cc(Cc3n[nH]c(=O)c4ccccc34)ccc2F)CC1 [Example 46, 4-(4-fluoro-3-(1-neopentyl-4-oxido-l,4-azaphosphinan-4-yl)benzyl)phthalazin-1(2H)-one] | < 100 |
| O=c1[nH]nc(C(O)c2ccc(F)c(P3(=O)CCN(C4CC4)CC3)c2)c2ccccc12 (racemic) [Example 58, (±)-4-[(3-(1-cyclopropyl-4-oxido-1,4-azaphosphinan-4-yl)-4-fluoro-1-phenyl)(hydroxymethyl)]phthalazin-1(2H)-one] | < 100 |
| CN(C)C(=O)N1CCP(=O)(c2cc(Cc3n[nH]c(=O)c4ccccc34)ccc2F)CC1 [Example 9, 4-(2-fluoro-5-((4-oxo-3,4-dihydrophthalazin-1-yl)methyl)phenyl)-N,N-dimethyl-1,4-azaphosphinane-1-carboxamide 4-oxide] | 100 to 1000 |
| [2H]C([2H])(c1ccc(F)c(P2(=O)CCN(c3ncccn3)CC2)c1)c1n[nH]c(=O)c2cc(F)ccc12 [Example 57, 4-[(4-fluoro-3-(4-oxido-1-(pyrimidin-2-yl)-1,4-azaphosphinan-4-yl)phenyl)dideuteromethyl]-7-fluorophthalazin-1(2H)-one] | < 100 |
| 4-(3-(1-(cyclobutanecarbonyl)-4-oxido-1,4-azaphosphinan-4-yl)-4-fluorobenzyl)phthalazin-1(2H)-one [Example 4] | < 100 |
| O=c1[nH]nc(Cc2ccc(F)c(P3(=O)CCN(c4ncccc4C(F)(F)F)CC3)c2)c2ccccc12 [Example 27, 4-(4-fluoro-3-(4-oxido-1-(3-(trifluoromethyl)pyridin-2-yl)-1,4-azaphosphinan-4-yl)benzyl)phthalazin-1(2H)-one] | 100 to 1000 |
| O=c1[nH]nc(Cc2ccc(F)c(P3(=O)CCN(CC(F)(F)F)CC3)c2)c2ccccc12 [Example 49, 4-(4-fluoro-3-(4-oxido-1-(2,2,2-trifluoroethyl)-1,4-azaphosphinan-4-yl)benzyl)phthalazin-1(2H)-one] | < 100 |
| CN1CCP(=O)(c2cc(Cc3n[nH]c(=O)c4ccccc34)ccc2F)CC1 [Example 40, 4-(4-fluoro-3-(1-methyl-4-oxido-1,4-azaphosphinan-4-yl)benzyl)phthalazin-1(2H)-one] | 100 to 1000 |
| N#Cc1ccc(N2CCP(=O)(c3cc(Cc4n[nH]c(=O)c5ccccc45)ccc3F)CC2)cc1 [Example 15, 4-(4-(2-fluoro-5-((4-oxo-3,4-dihydrophthalazin-1-yl)methyl)phenyl)-4-oxido-1,4-azaphosphinan-1-yl)benzonitrile] | 1000 to 10000 |
| CCCN1CCP(=O)(c2cc(Cc3n[nH]c(=O)c4ccccc34)ccc2F)CC1 [Example 45] | < 100 |

Further lines, results first:

| IC50 [nM] | Compound |
| --- | --- |
| < 100 | O=c1[nH]nc(Cc2ccc(F)c(P3(=O)CCN(c4ccc(C(F)(F)F)cn4)CC3)c2)c2ccccc12 [Example 24, 4-(4-fluoro-3-(4-oxido-1-(5-(trifluoromethyl)pyridin-2-yl)-1,4-azaphosphinan-4-yl)benzyl)phthalazin-1(2H)-one] |
| < 100 | O=c1[nH]nc(Cc2ccc(F)c(P3(=O)CCN(c4ncc(F)cn4)CC3)c2)c2ccccc12 [compound 35, 4-(4-fluoro-3-(4-oxido-1-(5-(fluoro)pyrimidin-2-yl)-1,4-azaphosphinan-4-yl)benzyl)phthalazin-1(2H)-one] |
| < 100 | N#Cc1ccc(N2CCP(=O)(c3cc(Cc4n[nH]c(=O)c5ccccc45)ccc3F)CC2)nc1 [Example 14, 6-(4-(2-fluoro-5-((4-oxo-3,4-dihydrophthalazin-1-yl)methyl)phenyl)-4-oxido-1,4-azaphosphinan-1-yl)nicotinonitrile] |
| 100 to 1000 | O=C(N1CCCC1)N1CCP(=O)(c2cc(Cc3n[nH]c(=O)c4ccccc34)ccc2F)CC1 [Example 10] |
| 100 to 1000 | CCCc1cnc(N2CCP(=O)(c3cc(Cc4n[nH]c(=O)c5ccccc45)ccc3F)CC2)nc1 [Example 37, 4-(4-fluoro-3-(4-oxido-1-(5-(n-propyl)pyrimidin-2-yl)-1,4-azaphosphinan-4-yl)benzyl)phthalazin-1(2H)-one] |
| < 100 | CC(C)N1CCP(=O)(c2cc(Cc3n[nH]c(=O)c4ccccc34)ccc2F)CC1 [Example 42, 4-(4-fluoro-3-(1-isopropyl-4-oxido-1,4-azaphosphinan-4-yl)benzyl)phthalazin-1(2H)-one] |
| < 100 | 4-(3-(1-(3,3-dimethylbutanoyl)-4-oxido-1,4-azaphosphinan-4-yl)-4-fluorobenzyl)phthalazin-1(2H)-one [Example 5] |
| < 100 | O=c1[nH]nc(Cc2ccc(F)c(P3(=O)CCN(C4CC4)CC3)c2)c2ccccc12 [Example 38, 4-(3-(1-cyclopropyl-4-oxido-1,4-azaphosphinan-4-yl)-4-fluorobenzyl)phthalazin-1(2H)-one] |
| < 100 | O=c1[nH]nc(Cc2ccc(F)c(P3(=O)CCN(c4ncc(F)cc4F)CC3)c2)c2ccccc12 [Example 28, 4-(4-fluoro-3-(1-(3,5-difluoropyridin-2-yl)-4-oxido-1,4-azaphosphinan-4-yl)benzyl)phthalazin-1(2H)-one] |
